Publication PMC6127842, “Identification of flavonolignans from Silybum marianum seeds as allosteric protein tyrosine phosphatase 1B inhibitors” (Journal of Enzyme Inhibition and Medicinal Chemistry, 2018)

Tests used:
[1] = target: T1, PTP1B (human recombinant) (Homo sapiens, UniProt P18031); assay: PTP1B inhibitory activity assay with p-NPP as substrate; type: biochemical; details: for IC50: p-NPP 4 mM, pH 6.0, 37 °C, 30 min, means ± SD, n = 3, NA = no activity >50 μM, read-out: IC50 against PTP1B
T1 construct: purchased Enzo Life Sciences, Inc. (Lausen, Switzerland)
T1 sequence (P18031 1-435): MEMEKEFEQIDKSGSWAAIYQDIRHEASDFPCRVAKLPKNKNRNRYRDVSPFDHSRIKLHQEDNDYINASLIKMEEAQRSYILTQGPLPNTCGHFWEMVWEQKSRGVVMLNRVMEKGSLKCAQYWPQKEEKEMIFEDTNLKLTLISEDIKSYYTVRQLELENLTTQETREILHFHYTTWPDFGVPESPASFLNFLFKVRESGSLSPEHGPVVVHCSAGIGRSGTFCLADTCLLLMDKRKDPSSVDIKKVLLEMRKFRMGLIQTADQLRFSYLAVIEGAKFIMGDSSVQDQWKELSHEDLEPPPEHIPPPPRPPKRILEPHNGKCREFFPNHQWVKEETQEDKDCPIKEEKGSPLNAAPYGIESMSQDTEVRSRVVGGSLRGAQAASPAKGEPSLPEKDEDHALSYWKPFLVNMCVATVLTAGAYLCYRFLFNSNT
Description: (§1) PTP1B inhibitory activity was measured using p-NPP as the substrate. A mixture consisting of p-NPP and PTP1B in a buffer containing 0.06 M citrate (pH 6.0), 0.1 M NaCl, 1 mM EDTA, and 1 mM DTT with or without a tested compound solution (prepared in the above buffer solution containing 30% dimethyl sulfoxide), was incubated at 37 °C for 30 min. The substrate was used at a concentration of 4 mM. The reaction was terminated by adding 20 µL of 10 M NaOH. The reaction mixture was blended by a microplate mixer for 5 min and the amount of produced p-nitrophenol was tested by measuring the absorbance at 405 nm. The blank was measured in the same way except adding a buffer solution instead of the enzyme.

[2] = target: T2, Vaccinia H1-related phosphatase (VHR, human recombinant) (Homo sapiens, UniProt P51452); assay: biochemical; details: read-out: Inhibition rate (%) VHR
T2 construct: purchased Enzo Life Sciences, Inc. (Lausen, Switzerland)

[3] = target: T3, T-cell protein tyrosine phosphatase (TCPTP, human recombinant) (Homo sapiens, UniProt P17706); assay: TCPTP inhibitory activity assay with p-NPP; type: biochemical; details: mean ± SD, three experiments, read-out: Inhibition rate (%) TCPTP
T3 construct: purchased Enzo Life Sciences, Inc. (Lausen, Switzerland)
T3 sequence (P17706 1-415): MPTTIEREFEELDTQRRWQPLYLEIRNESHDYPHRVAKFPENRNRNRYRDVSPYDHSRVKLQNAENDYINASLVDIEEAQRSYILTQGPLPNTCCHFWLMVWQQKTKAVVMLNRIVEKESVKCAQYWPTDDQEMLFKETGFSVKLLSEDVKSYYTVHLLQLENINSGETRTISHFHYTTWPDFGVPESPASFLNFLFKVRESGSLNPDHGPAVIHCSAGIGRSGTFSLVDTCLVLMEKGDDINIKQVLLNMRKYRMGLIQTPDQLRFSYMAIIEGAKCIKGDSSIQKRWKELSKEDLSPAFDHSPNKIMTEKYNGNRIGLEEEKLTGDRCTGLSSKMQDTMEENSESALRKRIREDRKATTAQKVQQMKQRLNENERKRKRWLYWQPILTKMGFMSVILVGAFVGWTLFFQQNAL

[4] = target: T1, PTP1B (human recombinant); assay: Kinetic analysis of PTP1B inhibition (Lineweaver–Burk, secondary plot); type: biochemical; details: for Inhibition type: Lineweaver–Burk, p-NPP 4, 8, 16 mM; for Ki: secondary plot of Lineweaver–Burk slopes
Description: as §1, with “enzyme. […] All compounds used for bioassay were confirmed the purity >98% by HPLC-PDA and ^1H NMR spectroscopic analyses.” for “enzyme.”
To elucidate the inhibition mode, the inhibition kinetics of compounds 1–5 were analyzed by the Lineweaver–Burk method with various substrate concentrations of p-NPP (4, 8, 16 mM). The initial reaction velocities were measured with and without the inhibitor.
(A) Lineweaver–Burk plots of compounds 1–5. The final concentration of compounds 1–5 was as follows: 1; 0, 1.0, 2.0, and 3.0 μM, 2; 0, 4.0, 6.0, and 8.0 μM, 3; 0, 1.3, 2.5, and 3.0 μM, 4; 0, 1.0, 2.0, and 3.0 μM, and 5; 0, 4.0, 6.0, and 8.0 μM. (B) The second plots of A.

[5] = target: T4, SHP-1 (human recombinant) (Homo sapiens, UniProt P29350); assay: SHP-1 inhibitory activity assay with p-NPP; type: biochemical; details: mean ± SD, three experiments, read-out: Inhibition rate (%) SHP-1
T4 construct: purchased Sigma-Aldrich Co., LLC; (St Louis, MO)

[6] = target: T5, SHP-2 (human recombinant) (Homo sapiens, UniProt Q06124); assay: SHP-2 inhibitory activity assay with p-NPP; type: biochemical; details: mean ± SD, three experiments, read-out: Inhibition rate (%) SHP-2
T5 construct: purchased Sigma-Aldrich Co., LLC; (St Louis, MO)
T5 sequence (Q06124 1-593): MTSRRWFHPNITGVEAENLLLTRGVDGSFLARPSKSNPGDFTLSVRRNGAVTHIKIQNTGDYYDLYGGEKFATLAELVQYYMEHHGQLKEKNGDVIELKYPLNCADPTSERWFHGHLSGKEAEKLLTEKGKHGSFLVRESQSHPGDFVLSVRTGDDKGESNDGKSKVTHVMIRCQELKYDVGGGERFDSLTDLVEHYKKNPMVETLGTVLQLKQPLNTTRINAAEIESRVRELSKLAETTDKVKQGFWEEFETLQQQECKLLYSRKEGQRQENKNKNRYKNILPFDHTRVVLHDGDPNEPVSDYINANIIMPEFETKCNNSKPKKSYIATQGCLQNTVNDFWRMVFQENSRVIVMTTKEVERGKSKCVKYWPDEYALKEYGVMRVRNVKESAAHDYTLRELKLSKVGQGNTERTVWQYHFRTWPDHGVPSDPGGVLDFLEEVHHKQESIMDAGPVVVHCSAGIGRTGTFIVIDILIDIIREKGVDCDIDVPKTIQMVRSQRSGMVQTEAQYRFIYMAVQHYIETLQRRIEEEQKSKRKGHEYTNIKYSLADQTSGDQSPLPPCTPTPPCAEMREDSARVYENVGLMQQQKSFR

[7] = mean ± SD, three experiments, read-out: Inhibition rate (%) PTP1B

T2 sequence (P51452 whole entry): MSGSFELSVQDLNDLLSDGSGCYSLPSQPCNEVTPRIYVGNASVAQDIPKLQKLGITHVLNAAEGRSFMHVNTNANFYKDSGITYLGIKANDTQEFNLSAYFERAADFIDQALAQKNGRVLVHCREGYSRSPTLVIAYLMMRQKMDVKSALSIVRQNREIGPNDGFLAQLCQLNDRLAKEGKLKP
T4 sequence (P29350 whole entry): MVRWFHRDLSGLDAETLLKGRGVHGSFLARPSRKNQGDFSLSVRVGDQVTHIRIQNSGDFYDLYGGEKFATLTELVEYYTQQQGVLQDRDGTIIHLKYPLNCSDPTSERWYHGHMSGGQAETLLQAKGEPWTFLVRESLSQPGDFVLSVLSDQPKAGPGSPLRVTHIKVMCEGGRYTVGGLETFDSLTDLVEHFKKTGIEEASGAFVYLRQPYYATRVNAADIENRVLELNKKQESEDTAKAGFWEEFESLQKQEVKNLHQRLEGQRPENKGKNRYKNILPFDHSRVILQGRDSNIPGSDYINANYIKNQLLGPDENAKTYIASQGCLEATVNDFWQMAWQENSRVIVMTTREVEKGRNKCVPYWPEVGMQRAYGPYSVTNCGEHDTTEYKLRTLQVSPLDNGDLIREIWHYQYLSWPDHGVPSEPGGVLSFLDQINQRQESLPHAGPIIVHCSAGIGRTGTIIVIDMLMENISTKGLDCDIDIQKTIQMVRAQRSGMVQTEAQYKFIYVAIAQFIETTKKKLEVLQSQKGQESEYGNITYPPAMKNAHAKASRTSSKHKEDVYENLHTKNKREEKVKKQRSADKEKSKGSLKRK

COc1cc([C@H]2Oc3c(O)cc([C@H]4Oc5cc(O)cc(O)c5C(=O)[C@@H]4O)cc3[C@@H]2CO)ccc1O [Compound 6, Silychristin B] gave an IC50 [1] of 23.9 ± 2.25 µM.
COc1cc(C2C(C(=O)O)C=C(C3Oc4cc(O)cc(O)c4C(=O)C3O)C3C(=O)OCC32)ccc1O (stereo not shown) [Compound 11, Silyamandin] showed an IC50 [1] of 17.4 ± 0.67 µM.
For COc1cc([C@@H]2[C@H]3CO[C@@]4(O)C(=O)[C@@H]2C=C([C@H]2Oc5cc(O)cc(O)c5C(=O)[C@@H]2O)[C@@H]34)ccc1O [Compound 9, Silydianin], the IC50 [1] was > 50 µM.
COc1cc([C@@H]2Oc3c(O)cc(-c4oc5cc(O)cc(O)c5c(=O)c4O)cc3[C@H]2CO)ccc1O [Compound 8, Dehydrosilychristin A] was tested, and the IC50 [1] was 7.18 ± 0.12 µM.
COc1cc([C@H]2Oc3ccc([C@H]4Oc5cc(O)cc(O)c5C(=O)[C@@H]4O)cc3O[C@@H]2CO)ccc1O [Compound 3, Isosilybin A] was tested, and the inhibition at 6 µM [2] was 59.2 ± 2.4%, the inhibition at 6 µM ([3]; 6.0 μM) was 27.5 ± 0.8% and the Inhibition type [4] was “Non-competitive”. For the same compound, the Ki [4] was 2.25 µM, the inhibition at 6 µM ([5]; 6.0 μM) was 30.6 ± 1.8% and the inhibition at 6 µM ([1]; 6.0 μM, mean ± SD, three experiments, read-out: Inhibition rate (%) PTP1B) was 90.7 ± 1.1%. It also gave an IC50 [1] of 2.65 ± 0.13 µM and an inhibition at 6 µM ([6]; 6.0 μM) of 49 ± 2.1%.
Work on COc1cc([C@@H]2Oc3c(O)ccc([C@H]4Oc5cc(O)cc(O)c5C(=O)[C@@H]4O)c3[C@H]2CO)ccc1O [Compound 7, Isosilychristin A] yielded an IC50 [1] of 6.55 ± 0.09 µM.
With COc1cc([C@H]2Oc3cc([C@H]4Oc5cc(O)cc(O)c5C(=O)[C@@H]4O)ccc3O[C@@H]2CO)ccc1O [Compound 1, Silybin A] the inhibition at 4 µM [2] was 60.6 ± 2.2%, the inhibition at 4 µM [3] was 15.7 ± 1.9% and the Inhibition type [4] was “Non-competitive”. For the same compound, the Ki [4] was 1.25 µM, the inhibition at 4 µM [5] was 33.4 ± 0.4% and the inhibition at 4 µM [1, 7] was 90.3 ± 0.9%. For the same compound, the IC50 [1] was 1.54 ± 0.22 µM and the inhibition at 4 µM [6] was 32.7 ± 1.8%.
In the case of COc1cc([C@@H]2Oc3ccc([C@H]4Oc5cc(O)cc(O)c5C(=O)[C@@H]4O)cc3O[C@H]2CO)ccc1O [Compound 4, Isosilybin B], the inhibition at 4 µM [2] is reported as 61.4 ± 3%, the inhibition at 4 µM [3] is reported as 16.4 ± 1.5% and the Inhibition type [4] is reported as “Non-competitive”. For the same compound, the Ki [4] was 1.03 µM, the inhibition at 4 µM [5] was 22.9 ± 2.1% and the inhibition at 4 µM [1, 7] was 92.1 ± 1.7%. It also gave an IC50 [1] of 1.37 ± 0.22 µM and an inhibition at 4 µM [6] of 50.1 ± 1.5%.
With COc1cc(C2C3C=C(c4oc5cc(O)cc(O)c5c(=O)c4O)C4C2COC4(O)C3=O)ccc1O (stereo not shown) [Compound 10, Dehydrosilydianin] the IC50 [1] was > 50 µM.
With COc1cc([C@@H]2Oc3cc([C@H]4Oc5cc(O)cc(O)c5C(=O)[C@@H]4O)ccc3O[C@H]2CO)ccc1O [Compound 2, Silybin B] the inhibition at 12 µM [2] was 65.6 ± 4.2%, the inhibition at 12 µM ([3]; 12 μM) was 32.1 ± 2.3% and the Inhibition type [4] was “Non-competitive”. For the same compound, the Ki [4] was 4.05 µM, the inhibition at 12 µM ([5]; 12 μM) was 34.4 ± 1.9% and the inhibition at 12 µM ([1]; 12 μM, mean ± SD, three experiments, read-out: Inhibition rate (%) PTP1B) was 89 ± 2.1%. For the same compound, the IC50 [1] was 5.65 ± 0.2 µM and the inhibition at 12 µM ([6]; 12 μM) was 37.5 ± 2.2%.
COc1cc([C@@H]2Oc3c(O)cc([C@H]4Oc5cc(O)cc(O)c5C(=O)[C@@H]4O)cc3[C@H]2CO)ccc1O [Compound 5, Silychristin A] was tested, and the inhibition at 20 µM [2] was 67.5 ± 1.4%, the inhibition at 20 µM ([3]; 20 μM) was 32.2 ± 1.9% and the Inhibition type [4] was “Non-competitive”. It also gave a Ki [4] of 3.95 µM, an inhibition at 20 µM ([5]; 20 μM) of 25.9 ± 1.4% and an inhibition at 20 µM ([1]; 20 μM, mean ± SD, three experiments, read-out: Inhibition rate (%) PTP1B) of 89.2 ± 2.6%. For the same compound, the IC50 [1] was 5.58 ± 0.33 µM and the inhibition at 20 µM ([6]; 20 μM) was 48.6 ± 1.9%.
